Assay [1] concerns BCL6 reporter construct in SuDHL4-3×BCL6-TK-Luc cells. Briefly: Cell-based luciferase assay (BCL6 reporter). The settings on record: 48 h, read-out: Luc IC50. In a few lines: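 SuDHL4 cells stably carrying a 3×BCL6-site TK-promoter firefly luciferase reporter, 15,000 cells/well, dosed over 10 concentrations (top 10 μM) and cultured two days at 37° C, 5% CO2. Luciferase luminescence read after room-temperature equilibration with neolite reagent.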

For another assay, the system named is Karpas422 cells. Briefly: Tumor cell growth inhibition assay. It counts as cell-based. Conditions: Homo sapiens, KARPAS-422, 144 h, read-out: GI Karpas EC50. In a few lines: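 Karpas422 cells were dosed over a 10-point concentration range (top 5 μM) and grown 6 days at 37 °C, 5% CO2, in Alpha-MEM with 10% FBS. Viability was read as ATPlite luminescence.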
For assay [2], the target named is BCL6 BTB domain (biotin-thrombin-BCL6 amino acids 1-129) (Homo sapiens (Human), UniProt P41182). Briefly: Surface Plasmon Resonance (SPR) assay. The format is binding. Conditions: Biacore T200, single cycle kinetic analysis. Here is the method: Surface Plasmon Resonance (SPR) Assay
SPR studies were performed using a Biacore™ T200 instrument (GE Health Sciences Inc.). […] The Biacore flow rate was set at 100 μl/min. […] Curve fitting and KD calculations were performed with the Biacore T200 Evaluation software (GE Health Sciences Inc).

The mark [3] stands for this setting: SuDHL4-3×BCL6-TK-Luc cells, two days.
Where [4] appears, read: Karpas422 cells, six days, ATPlite.

Like-named read-outs stand apart in the source and are kept apart here.

`CC1Cc2nc3c(c(-c4cc(F)c(O)c(C(N)=O)c4)cn3CC(=O)Nc3cc(N4CCN(C)C[C@@H]4C)nc(F)c3Cl)c(=O)n2C1` (stereo partly drawn) [I-78, 5-(1-(2-((3-chloro-6-((S)-2,4-dimethyl-piperazin-1-yl)-2-fluoropyridin-4-yl)amino)-2-oxoethyl)-7-methyl-4-oxo-4,6,7,8-tetrahydro-1H-dipyrrolo[1,2-a:2′,3′-d]pyrimidin-3-yl)-3-fluoro-2-hydroxy-benzamide]: the IC50 in assay [1] (setting [3]) came to 30.7 nM. In addition, the EC50 in the assay on Karpas422 cells (setting [4]) was determined as 21 nM. The same compound gave a Kd in assay [2] of 2.03 nM.
Take `C[C@H]1CN(C)CCN1c1cc(NC(=O)Cn2cc(-c3cc(F)c(O)c(C(N)=O)c3)c3c(=O)n4c(nc32)CCC4)c(Cl)c(F)n1` [I-55, (S)-5-(1-(2-((3-chloro-6-(2,4-dimethyl-piperazin-1-yl)-2-fluoropyridin-4-yl)amino)-2-oxoethyl)-4-oxo-4,6,7,8-tetrahydro-1H-dipyrrolo [1,2-a:2′,3′-d]pyrimidin-3-yl)-3-fluoro-2-hydroxybenzamide]: the IC50 in assay [1] worked out at 13.5 nM. Also, in the assay with Karpas422 cells, the EC50 was found to be 16.6 nM. In assay [2], this compound registered a Kd of 1.5 nM.
For `C[C@H]1CN(C)CCN1c1cc(NC(=O)Cn2cc(-c3cc(C#N)c(O)c4c3OCO4)c3c(=O)n4c(nc32)CCC4)c(Cl)c(F)n1` [I-67, (S)-N-(3-chloro-6-(2,4-dimethyl-piperazin-1-yl)-2-fluoropyridin-4-yl)-2-(3-(6-cyano-7-hydroxybenzo[d][1,3]dioxol-4-yl)-4-oxo-4,6,7,8-tetrahydro-1H-dipyrrolo[1,2-a:2′,3′-d]pyrimidin-1-yl) acetamide], in that order: 541 nM, 874 nM and 6.72 nM.
Take `COc1c(-c2cn(CC(=O)Nc3cc(N4CCOC[C@@H]4C)nc(F)c3Cl)c3nc4n(c(=O)c23)CCC4)cc(C(N)=O)c(O)c1OC` [I-70, (S)-5-(1-(2-((3-chloro-2-fluoro-6-(3-methyl-morpholino)pyridin-4-yl)amino)-2-oxoethyl)-4-oxo-4,6,7,8-tetra-hydro-1H-dipyrrolo [1,2-a:2′,3′-d]pyrimi-din-3-yl)-2-hydroxy-3,4-dimethoxy-benzamide]: the IC50 in assay [1] was 3820 nM. The EC50 in the assay on Karpas422 cells was found to be 4070 nM. Further, binding in assay [2] was put at a Kd of 255 nM.
The like results for `C[C@H]1COCCN1c1cc(NC(=O)Cn2cc(-c3cc(C(N)=O)c(O)c(F)c3F)c3c(=O)n4c(nc32)CCC4)c(Cl)c(F)n1` [I-5, (S)-5-(1-(2-((3-chloro-2-fluoro-6-(3-methyl-morpholino)pyridin-4-yl)amino)-2-oxoethyl)-4-oxo-4,6,7,8-tetrahydro-1H-dipyrrolo[1,2-a:2′,3′-d]pyrimidin-3-yl)-3,4-difluoro-2-hydroxy-benzamide] were, in that order, 167 nM, 124 nM and 11.7 nM.
On to `COc1c(-c2cn(CC(=O)Nc3cc(N4CCOC[C@@H]4C)ncc3Cl)c3nc4n(c(=O)c23)CCC4)cc(C(N)=O)c(O)c1OC` [I-69, (S)-5-(1-(2-((5-chloro-2-(3-methylmorpholino)pyridin-4-yl)amino)-2-oxoethyl)-4-oxo-4,6,7,8-tetrahydro-1H-dipyrrolo[1,2-a:2′,3′-d]pyrimidin-3-yl)-2-hydroxy-3,4-dimethoxy-benzamide], for which the concentration for half-maximal inhibition (IC50) in assay [1] (setting [3]) was determined as 7970 nM. In addition, the EC50 with Karpas422 cells (setting [4]) came to 10000 nM. This compound returned a dissociation constant (Kd) in assay [2] of 294 nM.
For `C[C@H]1CN(C)CCN1c1cc(NC(=O)Cn2cc(-c3cc(C(N)=O)c(O)c4c3OCO4)c3c(=O)n4c(nc32)CC(C)(C)C4)c(Cl)c(F)n1` [I-92, (S)-7-(1-(2-((3-chloro-6-(2,4-dimethylpipera-zin-1-yl)-2-fluoro-pyridin-4-yl)amino)-2-oxoethyl)-7,7-dimethyl-4-oxo-4,6,7,8-tetra-hydro-1H-dipyrrolo [1,2-a:2′,3′-d]pyrimi-din-3-yl)-4-hydroxy-benzo[d][1,3]dioxole-5-carboxamide], in that order: 12.4 nM, 9.22 nM and 0.87 nM.
The like results for `C[C@H]1COCCN1c1cc(NC(=O)Cn2cc(-c3cc(Cl)c(O)c(C(N)=O)c3)c3c(=O)n4c(nc32)CCC4)c(Cl)c(F)n1` [I-62, (S)-3-chloro-5-(1-(2-((3-chloro-2-fluoro-6-(3-methylmorpho-lino)pyridin-4-yl)amino)-2-oxoethyl)-4-oxo-4,6,7,8-tetra-hydro-1H-dipyrrolo [1,2-a:2′,3′-d]pyrimi-din-3-yl)-2-hydroxybenzamide] were, in that order, 78.5 nM, 31.2 nM and 7.17 nM.
In the case of `COc1c(O)c(C(N)=O)cc(-c2cn(CC(=O)Nc3cc(N4CCOC[C@@H]4C)ncc3Cl)c3nc4n(c(=O)c23)CCC4)c1F` [I-18, (S)-5-(1-(2-((5-chloro-2-(3-methylmorpholino)pyridin-4-yl)amino)-2-oxoethyl)-4-oxo-4,6,7,8-tetrahydro-1H-dipyrrolo[1,2-a:2′,3′-d]pyrimidin-3-yl)-4-fluoro-2-hydroxy-3-methoxybenzamide], in assay [1], the half-inhibitory concentration (IC50) came out at 818 nM. Also, the EC50 in the assay with Karpas422 cells came to 688 nM. Binding in assay [2] was put at a Kd of 34.3 nM.
Take `CCN1CCN(c2cc(NC(=O)Cn3cc(-c4cc(C(N)=O)c(O)c5c4OCO5)c4c(=O)n5c(nc43)CC(C)C5)c(Cl)c(F)n2)[C@@H](C)C1` (stereo partly drawn) [I-89, 7-(1-(2-((3-chloro-6-((S)-4-ethyl-2-methyl-piperazin-1-yl)-2-fluoropyridin-4-yl)amino)-2-oxoethyl)-7-methyl-4-oxo-4,6,7,8-tetrahydro-1H-dipyrrolo[1,2-a:2′,3′-d]pyrimidin-3-yl)-4-hydroxybenzo[d][1,3] dioxole-5-carboxamide]: the IC50 in assay [1] (setting [3]) turned out to be 12.9 nM. In addition, the EC50 in the assay with Karpas422 cells (setting [4]) came out at 11.1 nM. The compound also displayed a dissociation constant Kd in assay [2] of 1.36 nM.
`COCCN1CCN(c2cc(NC(=O)Cn3cc(-c4cc(Cl)c(O)c(C(N)=O)c4)c4c(=O)n5c(nc43)CCC5)c(Cl)c(F)n2)[C@@H](C)C1` [I-75, (S)-3-chloro-5-(1-(2-((3-chloro-2-fluoro-6-(4-(2-methoxyethyl)-2-methylpiperazin-1-yl)pyridin-4-yl)amino)-2-oxoethyl)-4-oxo-4,6,7,8-tetra-hydro-1H-dipyrrolo [1,2-a:2′,3′-d]pyrimi-din-3-yl)-2-hydroxy-benzamide]: in assay [1] (setting [3]), the IC50 was found to be 36.7 nM. Further, the EC50 in the assay on Karpas422 cells (setting [4]) turned out to be 48.9 nM. In addition, in assay [2], the dissociation constant (Kd) came out at 3.7 nM.
On to `C[C@H]1COCCN1c1cc(NC(=O)Cn2cc(-c3cc(C(N)=O)c(O)c(Cl)c3F)c3c(=O)n4c(nc32)CCC4)c(Cl)cn1` [I-13, (S)-3-chloro-5-(1-(2-((5-chloro-2-(3-methyl-morpholino)pyridin-4-yl)amino)-2-oxoethyl)-4-oxo-4,6,7,8-tetra-hydro-1H-dipyrrolo [1,2-a:2′,3′-d]pyrimidin-3-yl)-4-fluoro-2-hydroxybenzamide], for which, in assay [1] (setting [3]), the IC50 stood at 1320 nM. In the assay on Karpas422 cells (setting [4]), the EC50 amounted to 1870 nM. In assay [2], the affinity, expressed as Kd, was 111 nM.
For `C[C@H]1CNCCN1c1cc(NC(=O)Cn2cc(-c3cc(F)c(O)c(C(N)=O)c3)c3c(=O)n4c(nc32)CCC4)c(Cl)c(F)n1` [I-93, (S)-5-(1-(2-((3-chloro-2-fluoro-6-(2-methyl-piperazin-1-yl)pyridin-4-yl)amino)-2-oxoethyl)-4-oxo-4,6,7,8-tetrahydro-1H-dipyrrolo[1,2-a:2′,3′-d]pyrimidin-3-yl)-3-fluoro-2-hydroxy-benzamide], in that order: 140 nM, 83.9 nM and 1.79 nM.
The like results for `C[C@H]1CN(CC2(C)CC2)CCN1c1cc(NC(=O)Cn2cc(-c3cc(C(N)=O)c(O)c(F)c3F)c3c(=O)n4c(nc32)CCC4)c(Cl)cn1` [I-9, (S)-5-(1-(2-((5-chloro-2-(2-methyl-4-((1-methyl-cyclopropyl)methyl)piperazin-1-yl)pyridin-4-yl)amino)-2-oxoethyl)-4-oxo-4,6,7,8-tetrahydro-1H-dipyrrolo[1,2-a:2′,3′-d]pyrimidin-3-yl)-3,4-difluoro-2-hydroxy-benzamide] were, in that order, 743 nM, 692 nM and 56.8 nM.
Turning to `C[C@H]1CN(CC2CC2)CCN1c1cc(NC(=O)Cn2cc(-c3cc(C(N)=O)c(O)c(Cl)c3F)c3c(=O)n4c(nc32)CCC4)c(Cl)c(F)n1` [I-29, (S)-3-chloro-5-(1-(2-((3-chloro-6-(4-(cyclopropylmethyl)-2-methylpiperazin-1-yl)-2-fluoropyridin-4-yl)amino)-2-oxoethyl)-4-oxo-4,6,7,8-tetra-hydro-1H-dipyrrolo [1,2-a:2′,3′-d]pyrimi-din-3-yl)-4-fluoro-2-hydroxybenzamide], the IC50 in assay [1] was found to be 2150 nM. Besides, the concentration giving a half-maximal response (EC50) with Karpas422 cells was determined as 2590 nM. This compound came in with a Kd in assay [2] of 240 nM.
`CCOCCN1CCN(c2cc(NC(=O)Cn3cc(-c4cc(C(N)=O)c(O)c(OC)c4OC)c4c(=O)n5c(nc43)CCC5)c(Cl)c(F)n2)[C@@H](C)C1` [I-71, (S)-5-(1-(2-((3-chloro-6-(4-(2-ethoxyethyl)-2-methylpiperazin-1-yl)-2-fluoropyridin-4-yl)amino)-2-oxo-ethyl)-4-oxo-4,6,7,8-tetrahydro-1H-dipyrrolo [1,2-a:2′,3′-d]pyrimidin-3-yl)-2-hydroxy-3,4-dimethoxybenzamide]: the IC50 in assay [1] (setting [3]) is 1640 nM. For the same compound, the EC50 with Karpas422 cells (setting [4]) came to 1370 nM. In assay [2], this compound returned a Kd of 181 nM.

These data come from patent US11242351B2, “Tricyclic inhibitors of the BCL6 BTB domain protein-protein interaction and uses thereof” (priority 2017, dated 2022).
